Test results as given in patent US12708673B2, “Methods and compositions related to peptides and proteins with c-terminal elements” (Sanford Burnham Prebys Medical Discovery Institute, priority 2008, dated 2026).
“Also recorded” adds a separate entry of the source. Ends that are not written are not given here.

Experiments:
Type in all cases: cell-based, human
[1] = test system: PPC-1 cells; experiment: Binding and internalization of peptide-coated quantum dots by PPC-1 cells (confocal/fluorescence microscopy)
[2] = test system: PPC-1 cells; experiment: T7 phage internalization into PPC-1 (PPC1) cells at 37° C. (acid wash and titration, or anti-T7 staining and confocal imaging); details: for Internalization into PPC1 cells compared to native iRGD phage: truncated versions of iRGD phage; for Effect of endocytosis inhibitor on uptake of CendR peptides (RPARPAR phage internalization): 90 minutes at 37° C., acid wash and titration; for Phage internalization into PPC-1 cells (in words): 37° C.
Method: (§1) FIG. 2A: Binding of T7 phage to prostate cancer cells depends on the display of a C-terminal arginine on the phage particles. PPC1 cells were incubated with T7 bacteriophage displaying derivatives of the G7 (upper graph) or RPARPAR peptide (SEQ ID NO: 2) (lower graph) at 4° C., and the bound phage was quantified by plaque assay. Binding is expressed in fold over of the non-binding G7 control phage. FIG. 2B: Phage displaying C-terminal arginine is internalized into cultured PPC1 cells (arrow, nuclear internalization; arrowhead, cytoplasmic internalization). A panel of T7 phage clones were incubated at 37° C. with PPC1 cells grown on collagen-coated coverslips, stained with anti T7 antibody and imaged by confocal microscopy.
(§2) Phage display. For in vivo phage display, mice were injected intravenously with 10^10 plaque-forming units (pfu) of T7 phage followed by perfusion of the circulatory system and determination of the bound phage in target organs by titration. For cell binding studies on cultured cells (in vitro display) and organ-derived cell suspensions (ex vivo display), the cells were incubated with 10^9 pfu of phage at 4° C., washed, lysed, and quantified by titration. Incubation at 37° C. followed by low pH wash (glycine-HCl, pH 2.5) was used to assess the amount of internalized phage.
(§3) For biopanning and phage binding studies (Hoffman, J. A. et al., 2004), cultured cells were grown to confluence and harvested with trypsin and mouse organs were dissociated using Medimachine (BD Biosciences, San Jose, CA). To measure phage binding, 10^6 cells in binding buffer (DMEM containing 1% BSA) were incubated with 10^9 pfu/ml of T7 phage for 1 hour at 4° C. The cells were washed 4 times with the binding buffer, lysed in LB bacterial growth medium containing 1% NP-40, and titrated. Phage internalization assays used the same procedure, except that the cells were incubated with the phage at 37° C., and that an acidic buffer (500 mM sodium chloride, 0.1 M glycine, 1% BSA, pH 2.5) was used instead of binding buffer in the second wash.
(§4) Centrifugation on a silicone oil cushion (1.03 g/ml) was used to separate unbound phage from cells during time course experiments. Inhibitors of phage binding and internalization (heparin, chondroitin, glycocalyx removal enzymes, endocytosis inhibitors, free peptides, quantum dots and UV-inactivated phage) were added to the cells 20 minutes prior to incubation with phage. Endocytosis inhibitors used in this study were the following: nystatin (50 μg/ml), genistein (100 μg/ml), chlorpromazine (5 μg/ml), 5-(N-ethyl-N-isopropyl) amiloride (100 μM), wortmannin (10 μM).
Immunofluorescence staining. Cultured cells (2×10^5 cells) were grown in 6-well tissue culture plates on collagen-I coated coverslips (BD Biosciences, San Jose, CA) overnight at 37° C. in 5% CO2, and incubated with 10^8 pfu of T7 phage. The cells were fixed in 4% paraformaldehyde or cold (−20° C.) methanol, and stained with antibodies. Nuclei were stained with DAPI or […]. A polyclonal rabbit anti-T7 antibody was generated in-house as described previously (Laakkonen, P. et al. 2002b), except that an additional phage purification step using […] centrifugation was included. Other primary antibodies used were rat anti-mouse CD31 monoclonal antibody (BD Biosciences), rabbit anti-NRP-1, mouse anti-human Lamp-1, mouse anti-human caveolin (Millipore, Temecula, CA), mouse anti-NRP-1 (Miltenyi Biotec Inc., Auburn, CA), mouse anti-human EEA-1 (BD Biosciences, San Jose, CA). The secondary antibodies, Alexa594 goat antibodies to mouse, rat, and rabbit immunoglobulins and Alexa488 donkey anti-rabbit antibody were from Invitrogen (Carlsbad, CA). Cells and tissue sections were examined by confocal microscopy (Fluoview 500, Olympus America Inc., Center Valley, PA).

[3] = test system: PPC-1 cells; experiment: Confocal immunofluorescence co-staining of phage/qdots with cellular markers in PPC-1 cells; details: immunofluorescent co-staining
[4] = test system: PPC-1 cells; experiment: T7 phage binding to PPC-1 (PPC1) cells at 4° C., quantified by titration/plaque assay; details: for Effect of glycosaminoglycan digestion or competition on RPARPAR phage binding: data not shown
Method: as §1, §2, §3, §4

[5] = test system: PPC-1 cells; experiment: Protease treatment of phage followed by phage binding assay on PPC-1 cells at 4° C.
Method: 5×10^8 phage particles were incubated with indicated volumes of 2.5% trypsin at 37° C. for 20 min, followed by incubation of the phage with 1×10^6 PPC1 cells at 4° C. for 3 hours. Binding is expressed as fold over non-binding G7 control phage (the internalization of which was not affected by the trypsin treatment).
10^9 pfu of RPARPARA (SEQ ID NO:3) phage was treated with indicated amounts of trypsin at 37° C. followed by phage binding assay at 4° C. The data are representative of 4 independent binding experiments.
FIGS. 20A-20C show urokinase dependent CendR peptide. FIG. 20A: The design of a uPA-activatable CendR peptide (uCendR). […] Statistical analysis was performed with ANOVA (b); n=3; error bars indicate s.d.; triple asterisk, p<0.001. Scale bars: 20 μm.
as §3
Protease treatment of phage and qdots. 10^9 phage particles or 50 μl of peptide-coated qdots phage were treated with 50 iu of uPA, 25 μg of crystalline trypsin, 50 iu of thrombin, or 25 μg of collagenase type I (all Sigma, St. Louis, Mo).

D-rparpar [D-rparpar qdots] was tested. Which “Binding and internalization of peptide-coated qdots (in words)” value (shortened to “Binding and internalization … (in words)”) [1] did it give?
The value was “greatly reduced ability to trigger uptake of quantum dots”.

For CRGDK [CRGDK phage], which “Internalization into PPC1 cells compared to native iRGD phage” value [2] is on record?
The value was “higher ability to internalize”.

With “RPARPAR (also: biotinylated, site not given here, on streptavidin quantum dot) [RPARPAR qdots, streptavidin quantum dots coated with biotinylated RPARPAR peptide with free C-terminus]” as the molecule, how does the “Co-localization with NRP-1” value [3] read?
The value was “co-localize with NRP-1 at the cell surface and inside the cells”.

What about the “Binding and internalization … (in words)” value [1] of the same molecule?
The value was “robust binding and internalization; also recorded: bound and were internalized in a manner indistinguishable from the phage particles”.

And the “Time to perinuclear accumulation” value ([1]; qdots, 37° C., live cells)?
The value was 1 h.

And the “Time to plasma membrane association” value ([1]; qdots, 37° C., live cells)?
The value was 15 min.

And the “Effect of excess qdots on G6R phage binding” value ([4]; 4° C.)?
Its value is “blocked”.

And the “Effect of preincubating cells with qdots on binding of RPARPAR, RGERPPR and RVTRPPR phage” value ([4]; 4° C.)?
Its value is “inhibited”.

What about the “Effect of qdots on binding and internalization of RPARPAR phage” value ([4]; bound at 4° C., internalized at 37° C. with low pH wash) of the same molecule?
Its value is “inhibited both the binding and internalization of RPARPAR phage”.

With GGGGGGR [G6R phage] as the molecule, how does the “Phage binding to PPC-1 cells (in words)” value ([4]; 4° C.) read?
The value was “weak phage binding”.

How did the “Effect of glycosaminoglycan digestion or competition on RPARPAR phage binding” value (shortened to “Effect … on RPARPAR phage binding”) [4] turn out when chondroitinase ABC [reference compound] was run?
Its value is “had no effect”.

With RPARPAR-NH2 [RPARPAR-NH2 qdots] as the molecule, how does the “Binding and internalization … (in words)” value [1] read?
Its value is “abolished the binding and internalization; also recorded: blocked qdot internalization”.

For “chondroitin sulfate [reference compound]”, which “Effect … on RPARPAR phage binding” value [4] is on record?
The value was “had no effect”.

Which “Effect of endocytosis inhibitor on uptake of CendR peptides (RPARPAR phage internalization)” value (from here on “Effect of endocytosis inhibitor”) [2] does the source give for `O=c1c(-c2ccc(O)cc2)coc2cc(O)cc(O)c12` [genistein, reference compound] here?
The value was “None of these inhibitors affected the uptake”.

Which “Phage internalization into PPC-1 cells (in words)” value [2] does the source give for “CG7C [CG7C control phage, reference compound]” here?
Its value is “does not”.

Which “Effect … on RPARPAR phage binding” value [4] does the source give for heparin [reference compound] here?
Its value is “had no effect”.

With CRGDKG [CRGDKG phage] as the molecule, how does the “Internalization into PPC1 cells compared to native iRGD phage” value [2] read?
The value was “higher ability to internalize”.

How did the “Binding and internalization … (in words)” value [1] turn out when “RPARPARA (also: biotinylated, site not given here, on streptavidin quantum dot) [RPARPARA qdots]” was run?
Its value is “prevented”.

With RGERPPR [RGERPPR phage] as the molecule, how does the “Phage internalization into PPC-1 cells (in words)” value [2] read?
The value was “robust binding and internalization”.

What about the “Phage binding to PPC-1 cells (in words)” value ([4]; 4° C.) of the same molecule?
The value was “robust binding and internalization”.

Which “Effect of endocytosis inhibitor” value [2] does the source give for `CN(C)CCCN1c2ccccc2Sc2ccc(Cl)cc21` [chloropromazine, reference compound] here?
The value was “None of these inhibitors affected the uptake”.

`N=C(N)NC(=O)c1nc(Cl)c(N)nc1N` [Amiloride, reference compound] was tested. Which “Effect on uptake of uPA-CendR qdots” value [1] did it give?
Its value is “inhibited uptake”.

For ATWLPPR [A7R phage, reference compound], which “Phage binding to PPC-1 cells (in words)” value ([4]; 4° C.) is on record?
The value was “bound”.

How did the “Effect of endocytosis inhibitor” value [2] turn out when `C[C@@H]1[C@H](O)[C@@H](C)/C=C/C=C/CC/C=C/C=C/C=C/C=C/C(O[C@H]2O[C@H](C)[C@@H](O)[C@H](N)[C@@H]2O)CC2O[C@](O)(CC(O)C(O)CCC(O)CC(O)CC(O)CC(=O)O[C@H]1C)CC(O)C2C(=O)O` (some centres unmarked) [nystatin, reference compound] was run?
The value was “None of these inhibitors affected the uptake”.

Which “Phage internalization into PPC-1 cells (in words)” value [2] does the source give for RVTRPPR [RVTRPPR phage] here?
Its value is “robust binding and internalization”.

And the “Phage binding to PPC-1 cells (in words)” value ([4]; 4° C.)?
Its value is “robust binding and internalization”.

With RPAR [RPAR phage] as the molecule, how does the “Effect of UV-inactivated phage on CRGDK phage internalization” value ([2]; pre-incubation, various concentrations) read?
Its value is “inhibited by RPAR phage in a dose-dependent fashion”.

Which results are given for RPARSGRSAGGSVA [uPA-CendR phage]?
Effect of phage treatment with collagenase-I on binding ([5]; 25 μg of collagenase type I): had no effect; Effect of phage treatment with thrombin on binding ([5]; 50 iu of thrombin): had no effect; Elevation of binding by pretreatment with uPA ([5]; 50 iu of uPA prior to cell binding): more than 100 fold; Binding of untreated phage to PPC-1 cells over control G7 phage ([5]; no protease treatment): did not bind; Effect of trypsin treatment of phage on binding (in words) ([5]; trypsin): greatly enhanced the binding

With “TKPPR [enhanced tuftsin phage, reference compound]” as the molecule, how does the “Phage binding to PPC-1 cells (in words)” value ([4]; 4° C.) read?
Its value is “bound”.

Which “Effect of endocytosis inhibitor” value [2] does the source give for `CCN(c1nc(N)c(C(=O)N=C(N)N)nc1Cl)C(C)C` [5-(N-ethyl-N-isopropyl) amiloride, reference compound] here?
Its value is “None of these inhibitors affected the uptake”.

What does the source list for “RPARSGRSAGGSVA (also: biotinylated, site not given here, on streptavidin quantum dot) [uCendR qdots]”?
Internalization of untreated qdots ([1]; no uPA treatment): are not internalized; Internalization of qdots after uPA treatment [1]: triggers internalization; Internalization of qdots after uPA treatment ([1]; listed as RPARSGRSAGGSVA qdots): internalized in uPA sensitive fashion

B1: heparinase III: enzyme used for digestion of cell surface glycosaminoglycans (protein, UniProt Q59289 25-659, looked up)
Heparin-sulfate lyase: QSSSITRKDFDHINLEYSGLEKVNKAVAAGNYDDAAKALLAYYREKSKAREPDFSNAEKPADIRQPIDKVTREMADKALVHQFQPHKGYGYFDYGKDINWQMWPVKDNEVRWQLHRVKWWQAMALVYHATGDEKYAREWVYQYSDWARKNPLGLSQDNDKFVWRPLEVSDRVQSLPPTFSLFVNSPAFTPAFLMEFLNSYHQQADYLSTHYAEQGNHRLFEAQRNLFAGVSFPEFKDSPRWRQTGISVLNTEIKKQVYADGMQFELSPIYHVAAIDIFLKAYGSAKRVNLEKEFPQSYVQTVENMIMALISISLPDYNTPMFGDSWITDKNFRMAQFASWARVFPANQAIKYFATDGKQGKAPNFLSKALSNAGFYTFRSGWDKNATVMVLKASPPGEFHAQPDNGTFELFIKGRNFTPDAGVFVYSGDEAIMKLRNWYRQTRIHSTLTLDNQNMVITKARQNKWETGNNLDVLTYTNPSYPNLDHQRSVLFINKKYFLVIDRAIGEATGNLGVHWQLKEDSNPVFDKTKNRVYTTYRDGNNLMIQSLNADRTSLNEEEGKVSYVYNKELKRPAFVFEKPKKNAGTQNFVSIVYPYDGQKAPEISIRENKGNDFEKGKLNLTLTINGKQQLVLVP
For B1, which “Effect … on RPARPAR phage binding” value [4] is on record?
Its value is “had no effect”.
